“And” between values parts separate entries of the source, which are not always exact repeats. Equal entries are not always repeated. Where two headings read alike, the source gives them in different places.
Key:
[1] = system: soybean plants transformed with the DMO-encoding polynucleotide construct (Events 1-4); details: early pre-emergence; highest rate 5040 g/ha, 4.5 lb/acre, 9× labeled rate
Protocol: Transgenic soybean plants were obtained by Agrobacterium transformation of soybean cotyledonary nodes using standard procedures and a binary vector containing the DMO-encoding polynucleotide given as SEQ ID NO:7, which encodes the polypeptide of SEQ ID NO:8. Four transgenic soybean events were prepared and designated Events 1-4. […] Non-transgenic soybean plants were used as controls.
Transgenic and control soybean seeds were planted into 3.5-inch square plastic pots containing Redi-earth™ (Scotts-Siena Horticultural Products Co., Marysville, Ohio). […] The pots were placed on capillary matting in 35 inch×60 inch fiberglass watering trays for overhead and/or sub-irrigation for the duration of the test period so as to maintain optimum soil moisture for plant growth and were fertilized with Osmocote (14-14-14 slow release; Scotts-Siena Horticultural Products Co., Marysville, Ohio) at the rate of 100 gm/cu.ft. to sustain plant growth for the duration of greenhouse trials. […]
Treated plants in greenhouse trials were visually assessed at a particular day after treatment (DAT) for injury on a scale of 0 to 100 percent relative to untreated control plants, with zero representing “no” injury and 100% representing “complete” injury or death. Data were collected and analyzed using suitable statistical methods.

[2] = system: soybean plants containing DMO-encoding polynucleotide construct (Events 1-5)
Text: Non-transgenic and transgenic soybean seeds were planted around the beginning of the growing season at the time of optimum growth conditions depending on soil moisture, temperature, and seeding depth. […] The design details were as follows: 6 locations, 2 replications/location, 2 rows/plot, row length 12 feet (+3 ft alley), 9 seeds/foot, 108 seeds/row, 5 events (Events 1-4 and a fifth event that was segregating); and 4 treatments as shown below in Table 5. In all 240 plots were planted at 6 locations (40 per location).
Four non-transgenic border rows were planted all around the trial using a known commercial line such as A3525. Optimum production and management practices known in the art were followed. […] The field was irrigated as needed according to standard practices.
Seed planting and pre-emergence treatment were carried out approximately one-month apart in late spring in Monmouth, Ill.

[3] = Event 1, Post at V3: 1.5 lb/acre 4 weeks after planting
[4] = Event 1, Pre & Post: 1.5 lb/acre at planting and 1.5 lb/acre 4 weeks after planting
[5] = Event 1, Pre at sowing: 1.5 lb/acre at planting
[6] = Event 2, Post at V3: 1.5 lb/acre 4 weeks after planting
[7] = Event 2, Pre & Post: 1.5 lb/acre at planting and 1.5 lb/acre 4 weeks after planting
[8] = Event 2, Pre at sowing: 1.5 lb/acre at planting
[9] = Event 3, Post at V3: 1.5 lb/acre 4 weeks after planting
[10] = Event 3, Pre & Post: 1.5 lb/acre at planting and 1.5 lb/acre 4 weeks after planting
[11] = Event 3, Pre at sowing: 1.5 lb/acre at planting
[12] = Event 4, Post at V3: 1.5 lb/acre 4 weeks after planting
[13] = Event 4, Pre & Post: 1.5 lb/acre at planting and 1.5 lb/acre 4 weeks after planting
[14] = Event 4, Pre at sowing: 1.5 lb/acre at planting
[15] = Event 5 (segregating), Post at V3: 1.5 lb/acre 4 weeks after planting
[16] = Event 5 (segregating), Pre & Post: 1.5 lb/acre at planting and 1.5 lb/acre 4 weeks after planting
[17] = Event 5 (segregating), Pre at sowing: 1.5 lb/acre at planting

SMILES: COc1c(Cl)ccc(Cl)c1C(=O)O [dicamba, 3,6-dichloro-o-anisic acid]
- injury to the transgenic plants [1]: less than 10%
- % GR 6/27 [2, 3]: 0%
- % GR 7/5 [2, 3]: 0%
- % Inj 6/7 [2, 3]: 0%
- % Inj 6/13 [2, 3]: 0%
- % Inj 6/20 [2, 3]: 0%
- % Inj 6/27 [2, 3]: 5% and 7%
- % Inj 7/5 [2, 3]: 0%
- % GR 6/27 [2, 4]: 0% and 3%
- % GR 7/5 [2, 4]: 0%
- % Inj 6/7 [2, 4]: 0%
- % Inj 6/13 [2, 4]: 0% and 2%
- % Inj 6/20 [2, 4]: 0% and 2%
- % Inj 6/27 [2, 4]: 5%
- % Inj 7/5 [2, 4]: 0%
- % GR 6/27 [2, 5]: 0%
- % GR 7/5 [2, 5]: 0%
- % Inj 6/7 [2, 5]: 0%
- % Inj 6/13 [2, 5]: 0% and 2%
- % Inj 6/20 [2, 5]: 0%
- % Inj 6/27 [2, 5]: 1% and 2%
- % Inj 7/5 [2, 5]: 0%
- Dead or Stunted [2, 5]: 0
- % GR 6/27 [2, 6]: 0%
- % GR 7/5 [2, 6]: 0%
- % Inj 6/7 [2, 6]: 0%
- % Inj 6/13 [2, 6]: 0%
- % Inj 6/20 [2, 6]: 0%
- % Inj 6/27 [2, 6]: 3%
- % Inj 7/5 [2, 6]: 0% and 2%
- % GR 6/27 [2, 7]: 0%
- % GR 7/5 [2, 7]: 0%
- % Inj 6/7 [2, 7]: 0%
- % Inj 6/13 [2, 7]: 0%
- % Inj 6/20 [2, 7]: 0%
- % Inj 6/27 [2, 7]: 1% and 2%
- % Inj 7/5 [2, 7]: 2% and 0%
- Dead or Stunted [2, 7]: 0
- % GR 6/27 [2, 8]: 0%
- % GR 7/5 [2, 8]: 0%
- % Inj 6/7 [2, 8]: 0%
- % Inj 6/13 [2, 8]: 0%
- % Inj 6/20 [2, 8]: 0%
- % Inj 6/27 [2, 8]: 5% and 2%
- % Inj 7/5 [2, 8]: 0%
- Dead or Stunted [2, 8]: 0
- % GR 6/27 [2, 9]: 3% and 0%
- % GR 7/5 [2, 9]: 0%
- % Inj 6/7 [2, 9]: 0%
- % Inj 6/13 [2, 9]: 0%
- % Inj 6/20 [2, 9]: 0%
- % Inj 6/27 [2, 9]: 3% and 5%
- % Inj 7/5 [2, 9]: 0% and 3%
- Dead or Stunted [2, 9]: 0
- % GR 6/27 [2, 10]: 0%
- % GR 7/5 [2, 10]: 0%
- % Inj 6/7 [2, 10]: 0%
- % Inj 6/13 [2, 10]: 0% and 2%
- % Inj 6/20 [2, 10]: 0%
- % Inj 6/27 [2, 10]: 3%
- % Inj 7/5 [2, 10]: 2% and 0%
- Dead or Stunted [2, 10]: 0
- % GR 6/27 [2, 11]: 0%
- % GR 7/5 [2, 11]: 0%
- % Inj 6/7 [2, 11]: 0%
- % Inj 6/13 [2, 11]: 4% and 2%
- % Inj 6/20 [2, 11]: 0%
- % Inj 7/5 [2, 11]: 0% and 3%
- Dead or Stunted [2, 11]: 0
- % GR 6/27 [2, 12]: 0%
- % GR 7/5 [2, 12]: 0%
- % Inj 6/7 [2, 12]: 0%
- % Inj 6/13 [2, 12]: 0%
- % Inj 6/20 [2, 12]: 0%
- % Inj 6/27 [2, 12]: 3%
- % Inj 7/5 [2, 12]: 0%
- Dead or Stunted [2, 12]: 0
- % GR 6/27 [2, 13]: 8% and 3%
- % GR 7/5 [2, 13]: 2% and 0%
- % Inj 6/7 [2, 13]: 0%
- % Inj 6/13 [2, 13]: 0% and 1%
- % Inj 6/20 [2, 13]: 0%
- % Inj 6/27 [2, 13]: 3%
- % Inj 7/5 [2, 13]: 2% and 0%
- Dead or Stunted [2, 13]: 0
- % GR 6/27 [2, 14]: 0%
- % GR 7/5 [2, 14]: 0%
- % Inj 6/7 [2, 14]: 0%
- % Inj 6/13 [2, 14]: 3% and 4%
- % Inj 6/20 [2, 14]: 0%
- % Inj 6/27 [2, 14]: 5% and 2%
- % Inj 7/5 [2, 14]: 0%
- Dead or Stunted [2, 14]: 0
- % GR 6/27 [2, 15]: 0% and 5%
- % GR 7/5 [2, 15]: 0%
- % Inj 6/7 [2, 15]: 0%
- % Inj 6/13 [2, 15]: 0%
- % Inj 6/20 [2, 15]: 0%
- % Inj 6/27 [2, 15]: 7% and 5%
- % Inj 7/5 [2, 15]: 2%
- Dead or Stunted [2, 15]: 15
- % GR 6/27 [2, 16]: 5% and 0%
- % GR 7/5 [2, 16]: 0%
- % Inj 6/7 [2, 16]: 0%
- % Inj 6/13 [2, 16]: 15% and 10%
- % Inj 6/20 [2, 16]: 10%
- % Inj 6/27 [2, 16]: 3% and 1%
- % Inj 7/5 [2, 16]: 0%
- Dead or Stunted [2, 16]: 23 and 20
- % GR 6/27 [2, 17]: 0%
- % GR 7/5 [2, 17]: 0%
- % Inj 6/7 [2, 17]: 0%
- % Inj 6/13 [2, 17]: 15% and 8%
- % Inj 6/20 [2, 17]: 15% and 10%
- % Inj 6/27 [2, 17]: 5% and 2%
- % Inj 7/5 [2, 17]: 0%
- Dead or Stunted [2, 17]: 24 and 14
- injury in field, overall ([2]; pre- and post-emergence applications of dicamba, all transgenic soybean plants): no or very little injury

From patent US8629328B2 (Monsanto Technology LLC, priority 2006, dated 2014)
